This passage reports activation, melting point and inhibition results from patent publication US7649001B2.

Usually melting point stands for the temperature of the solid-liquid transition. As usually defined, the inhibition is the change of the read-out against control, counted positive when it falls.

Data set [1] concerns Human prostate cancer cell strain LNCaP-FGC. In words: cells. The settings on record: 72 h, read-out: Promotion rate (%) on PSA production at 100 nM. It counts as cell-based.
The target in data set [2] is T1, wild type androgen receptor (AR) (Homo sapiens, UniProt P10275).
T1 sequence (P10275 1-920): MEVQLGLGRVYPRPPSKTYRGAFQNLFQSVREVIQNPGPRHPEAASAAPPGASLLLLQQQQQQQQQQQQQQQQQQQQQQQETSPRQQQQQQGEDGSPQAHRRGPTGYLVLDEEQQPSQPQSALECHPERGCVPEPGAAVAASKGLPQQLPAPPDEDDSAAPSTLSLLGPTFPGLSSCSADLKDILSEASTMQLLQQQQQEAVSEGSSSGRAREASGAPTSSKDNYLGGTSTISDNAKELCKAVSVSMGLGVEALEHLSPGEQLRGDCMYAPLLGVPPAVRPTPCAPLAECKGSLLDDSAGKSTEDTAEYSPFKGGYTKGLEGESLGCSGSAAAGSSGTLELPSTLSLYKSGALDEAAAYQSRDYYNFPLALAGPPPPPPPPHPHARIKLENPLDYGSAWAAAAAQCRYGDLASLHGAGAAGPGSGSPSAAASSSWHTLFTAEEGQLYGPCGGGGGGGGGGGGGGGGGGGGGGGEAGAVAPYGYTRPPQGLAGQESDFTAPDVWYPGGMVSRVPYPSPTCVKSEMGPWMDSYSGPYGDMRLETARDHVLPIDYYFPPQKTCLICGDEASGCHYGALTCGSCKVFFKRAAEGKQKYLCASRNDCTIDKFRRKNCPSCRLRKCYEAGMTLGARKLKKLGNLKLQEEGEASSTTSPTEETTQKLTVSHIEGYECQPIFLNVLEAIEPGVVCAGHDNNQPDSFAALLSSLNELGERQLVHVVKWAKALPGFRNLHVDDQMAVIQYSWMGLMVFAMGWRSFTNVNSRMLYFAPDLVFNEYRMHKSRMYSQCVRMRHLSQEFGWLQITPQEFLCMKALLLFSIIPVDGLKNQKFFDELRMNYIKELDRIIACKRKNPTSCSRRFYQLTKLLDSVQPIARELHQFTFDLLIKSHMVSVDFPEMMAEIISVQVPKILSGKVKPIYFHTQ
In words: AR-binding inhibition test (wild type). The settings on record: read-out: Inhibition rate (%) at 100 nM Wild type.

The target in data set [3] is T2, LNCaP type mutant androgen receptor (AR) (Homo sapiens, UniProt P10275, T878A).
T2 sequence (P10275 1-920 T878A): T1 sequence (P10275 1-920) with T878A
In words: AR-binding inhibition test (LNCaP type). The conditions noted are these: read-out: Inhibition rate (%) at 100 nM LNCaP type.

Residue numbers refer to the chain shown, from its start.

`N#Cc1ccc(N2CCSCC2)c2ccccc12` [Compound 8, 4-(4-thiomorpholinyl)-1-naphthonitrile] came in with a melting point of 130 to 131 °C. In addition, the activation at 0.1 µM in data set [1] amounted to 71%. In data set [2], the inhibition at 0.1 µM came to 92%. In addition, the inhibition at 0.1 µM in data set [3] is 96%.

`N#Cc1ccc(N2CCC(F)C2)c2ccsc12` (stereo not shown) [Compound 100, 4-(3-fluoro-1-pyrrolidinyl)-1-benzothiophene-7-carbonitrile]: the melting point fell in the range of 151 to 152 °C. For the same molecule, in data set [1], the activation at 0.1 µM came out at 82%. Also, in data set [2], the inhibition at 0.1 µM was 97%. The inhibition at 0.1 µM in data set [3] amounted to 92%.

As for `N#Cc1ccc(N2CCC(CCO)C2)c2ccsc12` (stereo not shown) [Compound 101, 4-[3-(2-hydroxyethyl)-1-pyrrolidinyl]-1-benzothiophene-7-carbonitrile], the melting point fell in the range of 109 to 111 °C. Also, in data set [1], the activation at 0.1 µM came out at 86%. Besides, in data set [2], the inhibition at 0.1 µM worked out at 93%. Besides, in data set [3], the inhibition at 0.1 µM came to 97%.

Turning to `CC1CCCN1c1ccc(C#N)c2occc12` (stereo not shown) [Compound 95, 4-(2-methyl-1-pyrrolidinyl)-1-benzofuran-7-carbonitrile], the melting point lay in the range of 82 to 83 °C. Further, the inhibition at 0.1 µM in data set [2] was found to be 92%. The inhibition at 0.1 µM in data set [3] came out at 105%.

In the case of `N#Cc1ccc(N2CCCCC2)c2ccsc12` [Compound 73, 4-(1-piperidinyl)-1-benzothiophene-7-carbonitrile], the melting point was 99 to 100 °C. Also, the inhibition at 0.1 µM in data set [2] was 95%. For the same molecule, the inhibition at 0.1 µM in data set [3] is 95%.

As for `C[C@H]1C[C@@H](O)CN1c1ccc(C#N)c2sccc12` [Compound 109, 4-[(2S,4R)-4-hydroxy-2-methyl-1-pyrrolidinyl]-1-benzothiophene-7-carbonitrile], the melting point was in the range of 102 to 103 °C. Moreover, the activation at 0.1 µM in data set [1] was determined as 86%. In addition, in data set [2], the inhibition at 0.1 µM turned out to be 98%. For the same molecule, in data set [3], the inhibition at 0.1 µM amounted to 99%.

`C[C@H]1[C@H](O)CCN1c1ccc(C#N)c2sccc12` [Compound 115, 4-[(2S,3R)-3-hydroxy-2-methyl-1-pyrrolidinyl]-1-benzothiophene-7-carbonitrile] displayed a melting point of 145 to 146 °C. Also, in data set [1], the activation at 0.1 µM amounted to 76%. Besides, the inhibition at 0.1 µM in data set [2] was found to be 93%. Further, the inhibition at 0.1 µM in data set [3] was 97%.

Turning to `N#Cc1ccc(N2CCC(O)C2)c2ccccc12` (stereo not shown) [Compound 18, 4-(3-hydroxy-1-pyrrolidinyl)-1-naphthonitrile], the melting point lay within 138 to 139 °C. Further, the inhibition at 0.1 µM in data set [2] worked out at 96%. Also, the inhibition at 0.1 µM in data set [3] amounted to 79%.

On to `N#Cc1ccc(N2CCC(CO)CC2)c2ccccc12` [Compound 30, 4-[4-(hydroxymethyl)-1-piperidinyl]-1-naphthonitrile], for which the melting point lay in the range of 135 to 136 °C. In addition, in data set [1], the activation at 0.1 µM was determined as 100%. The inhibition at 0.1 µM in data set [2] was found to be 105%. Moreover, the inhibition at 0.1 µM in data set [3] was 113%.

In the case of `N#Cc1ccc(N2CCC(CCO)CC2)c2ccccc12` [Compound 78, 4-[4-(2-hydroxyethyl)-1-piperidinyl]-1-naphthonitrile], the melting point lay in the range of 128 to 129 °C. Also, the activation at 0.1 µM in data set [1] worked out at 89%. Besides, in data set [2], the inhibition at 0.1 µM stood at 92%. For the same molecule, the inhibition at 0.1 µM in data set [3] worked out at 97%.
